Experimental data published in patent US9834550B2, “Pyridopyrimidinone compounds for modulating the catalytic activity of histone lysine demethylases (KDMs)” (Dong-A Socio Holdings Co., Ltd., priority 2014, dated 2017).

What was measured:
[1] = target: T1, Recombinant human JARID1B/KDM5B (Homo sapiens, UniProt Q9UGL1); assay: LANCE Ultra TR-FRET demethylase assay with FLAG-tagged JARID1B; format: biochemical; conditions: 100 nM compound; 500 nM biotinylated H3K4me3 peptide substrate
T1 construct: purchased Active Motif 31432; host or cells: Sf9 insect cells
T1 sequence (Q9UGL1 whole entry): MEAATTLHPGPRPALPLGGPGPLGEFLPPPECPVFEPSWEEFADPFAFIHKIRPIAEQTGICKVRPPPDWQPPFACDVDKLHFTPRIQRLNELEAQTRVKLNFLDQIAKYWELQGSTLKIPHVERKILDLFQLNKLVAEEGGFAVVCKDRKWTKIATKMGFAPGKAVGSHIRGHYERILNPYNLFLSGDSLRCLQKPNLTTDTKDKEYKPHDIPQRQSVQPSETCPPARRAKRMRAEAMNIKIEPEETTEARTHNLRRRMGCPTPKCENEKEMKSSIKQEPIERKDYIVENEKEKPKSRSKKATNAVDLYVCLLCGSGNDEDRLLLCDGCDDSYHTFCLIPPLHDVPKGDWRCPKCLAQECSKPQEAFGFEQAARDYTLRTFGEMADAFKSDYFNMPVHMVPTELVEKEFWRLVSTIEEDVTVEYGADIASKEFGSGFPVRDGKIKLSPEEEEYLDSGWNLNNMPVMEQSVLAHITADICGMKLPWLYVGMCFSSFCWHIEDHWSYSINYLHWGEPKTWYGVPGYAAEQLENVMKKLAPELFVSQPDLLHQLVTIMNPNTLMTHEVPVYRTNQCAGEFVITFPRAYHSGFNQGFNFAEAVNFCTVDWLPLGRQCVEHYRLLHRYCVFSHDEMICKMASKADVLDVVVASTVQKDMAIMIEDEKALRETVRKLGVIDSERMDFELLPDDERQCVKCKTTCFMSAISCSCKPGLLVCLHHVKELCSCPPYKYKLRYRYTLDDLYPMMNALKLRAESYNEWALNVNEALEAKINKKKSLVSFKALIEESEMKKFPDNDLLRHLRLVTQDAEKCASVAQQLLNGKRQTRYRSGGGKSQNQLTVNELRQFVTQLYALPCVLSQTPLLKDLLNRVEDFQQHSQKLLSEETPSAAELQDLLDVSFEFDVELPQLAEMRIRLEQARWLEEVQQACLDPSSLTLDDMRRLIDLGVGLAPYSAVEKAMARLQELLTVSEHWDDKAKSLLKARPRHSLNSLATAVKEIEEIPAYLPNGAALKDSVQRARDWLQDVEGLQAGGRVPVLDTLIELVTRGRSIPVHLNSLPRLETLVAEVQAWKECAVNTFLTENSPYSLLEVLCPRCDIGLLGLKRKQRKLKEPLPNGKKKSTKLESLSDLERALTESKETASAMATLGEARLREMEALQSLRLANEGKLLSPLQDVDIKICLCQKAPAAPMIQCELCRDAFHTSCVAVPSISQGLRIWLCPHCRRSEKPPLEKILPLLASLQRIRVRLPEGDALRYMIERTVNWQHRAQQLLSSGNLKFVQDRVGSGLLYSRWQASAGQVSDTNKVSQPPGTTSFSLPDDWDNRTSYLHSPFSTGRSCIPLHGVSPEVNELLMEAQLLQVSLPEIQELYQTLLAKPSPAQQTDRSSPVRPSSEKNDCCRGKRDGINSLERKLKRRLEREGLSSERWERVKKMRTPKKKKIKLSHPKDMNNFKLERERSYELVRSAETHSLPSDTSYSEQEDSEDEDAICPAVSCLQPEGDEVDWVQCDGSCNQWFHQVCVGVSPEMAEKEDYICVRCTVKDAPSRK
Outline: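 Sf9-expressed N-FLAG full-length JARID1B (10–30 nM) preincubated 5 min with compound at 20, 1 or 0.1 uM (1% DMSO), then 500 nM biotin-H3K4me3 peptide, 500 uM 2-OG, 25 uM Fe(II), 2 mM ascorbate added; 30 min at room temperature in Hepes pH 7.5. H3K4me2/1 product read by TR-FRET 665/590 ratio.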

[2] = test system: MDA-MB-231 cell migration; assay: Wound healing assay; format: cell-based; conditions: 24 h treatment; compared to DMSO; FIG. 1
Description: Breast cancer cells (MDA-MD-231) were seeded into 12-well plates (2500 cells/well), at bottom of which culture-inserts were implemented. The cells were cultured to subconfluence in RPMI1640 medium supplemented with 0.5% FBS and 100 μg/ml penicillin/streptomycin, and then starved in serum-free media for one day at 37° C. and 5% CO2. The inserts were removed to generate two cell patches separated each other by 0.9 mm of ‘wound fields’. Cultures were then treated with test compounds for 24 h. The results of wound healing assays at indicated time were photographed under microscopy with ×40 magnification after generating the wound fields. […] Similar results were obtained in three independent samples. The cancer cells were stained with 0.1% crystal violet at 24-hours time points.

[3] = test system: MDA-MB-231 breast cancer cells; assay: Cell invasion assay (transwell, BME); format: cell-based; conditions: 10 μM; 24-h incubation; FIG. 2
Description: The ability of MDA-MB-231 breast cancer cells to invade into the basement membrane through a layer of BME (Basement Membrane Extract) was determined by using transwell inserts in a 24-well plate. The pore size of membrane was […]. The basement membrane was reconstituted by loading cold BME on top of the polycarbonate filter of the inserts of the transwell plate. After gelation of Matrigel at 37° C., MDA-MB-231 cells were plated into the inserts (1×10^5 cells/0.3 ml/well), and complete media were added to the lower wells (0.5 ml/well). To analyze the effect of 10 μM of compounds No. 87, 167, isonicotinic acid r or SAHA, was present in the cell suspensions. After a 24-h incubation, the noninvasive cells were remained within the inserts while cells that traversed through the BME and the polycarbonate filter were attached to the lower surface of the filter. The penetrated cells were then stained with 0.1% crystal violet.

Row | SMILES | inhibition at 0.1 µM [1] [%] | MDA-MB-231 cell migration (wound healing) [2] | MDA-MB-231 breast cancer cell invasion potential [3]
1 | CN1CCC(CNCc2nccc3c(=O)[nH]c(COc4ccc(Cc5ccccc5)cc4)nc23)C1 (centres unmarked) [Example 144, 2-((4-benzylphenoxy)methyl)-8-((((1-methylpyrrolidin-3-yl)methyl)amino)methyl)pyrido[3,4-d]pyrimidin-4(3H)-one] | > 50 | suppressed MDA-MB-231 cell migration | 
2 | O=C(CCCCCCC(=O)Nc1ccccc1)NO [SAHA, reference compound] |  |  | decreased the MDA-MB-231 breast cancer cell invasion potential
3 | CCN(CC)CCCC(C)NCc1nccc2c(=O)[nH]cnc12 (centres unmarked) [Example 87, 8-(((5-(diethylamino)pentan-2-yl)amino)methyl)pyrido[3,4-d]pyrimidin-4(3H)-one] | < 20 | inactive | 
4 | O=c1[nH]c(COc2ccc(F)c(Cl)c2)nc2c(CNCC3CNCCO3)nccc12 (centres unmarked) [Example 167, 2-((3-chloro-4-fluorophenoxy)methyl)-8-(((morpholin-2-ylmethyl)amino)methyl)pyrido[3,4-d]pyrimidin-4(3H)-one] | > 50 |  | decreased the MDA-MB-231 breast cancer cell invasion potential
5 | CN1CCC(CNCc2nccc3c(=O)[nH]c(C4CCOC4)nc23)CC1 (centres unmarked) [Example 196, 8-((((1-methylpiperidin-4-yl)methyl)amino)methyl)-2-(tetrahydrofuran-3-yl)pyrido[3,4-d]pyrimidin-4(3H)-one] | < 20 |  | 
6 | CN(C)C(=O)c1ccc(CNCc2nccc3c(=O)[nH]c(COc4ccc(F)c(Cl)c4)nc23)o1 [Example 174, 5-((((2-((3-chloro-4-fluorophenoxy)methyl)-4-oxo-3,4-dihydropyrido[3,4-d]pyrimidin-8-yl)methyl)amino)methyl)-N,N-dimethylfuran-2-carboxamide] | 20 to 50 |  | 
7 | CN1CCC(N2CCC(CNCc3nccc4c(=O)[nH]cnc34)CC2)CC1 [Example 97, 8-((((1′-methyl-[1,4′-bipiperidin]-4-yl)methyl)amino)methyl)pyrido[3,4-d]pyrimidin-4(3H)-one] | 20 to 50 |  | 
8 | CN1CCC(CNCc2nccc3c(=O)[nH]c(COc4ccc(Cc5ccccc5)cc4)nc23)CC1 [Example 152, 2-((4-benzylphenoxy)methyl)-8-((((1-methylpiperidin-4-yl)methyl)amino)methyl)pyrido[3,4-d]pyrimidin-4(3H)-one] | > 50 |  | 
9 | O=C(CNCc1nccc2c(=O)[nH]c(COc3ccc(F)c(Cl)c3)nc12)N[C@H]1CC[C@H](N2CCCC2)O1 (relative stereo) [Example 233, 2-(((2-((3-chloro-4-fluorophenoxy)methyl)-4-oxo-3,4-dihydropyrido[3,4-d]pyrimidin-8-yl)methyl)amino)-N-(trans-5-(pyrrolidin-1-yl)tetrahydrofuran-2-yl)acetamide] | > 50 |  | 
10 | Cc1ccc(Cl)c(OCc2nc3c(CNCC4CCNCC4)nccc3c(=O)[nH]2)c1 [Example 130, 2-((2-chloro-5-methylphenoxy)methyl)-8-(((piperidin-4-ylmethyl)amino)methyl)pyrido[3,4-d]pyrimidin-4(3H)-one] | > 50 |  | 
11 | O=c1[nH]c(COc2ccccc2Cl)nc2c(CNCC3CCN(Cc4ccccc4)CC3)nccc12 [Example 105, 8-((((1-benzylpiperidin-4-yl)methyl)amino)methyl)-2-((2-chlorophenoxy)methyl)pyrido[3,4-d]pyrimidin-4(3H)-one] | > 50 |  | 
